Experiments:
COLO 205 [1] = experiment: Induction of cell cycle arrest in p53 deficient human COLO205 cells assessed as accumulation at subG1 phase at 10 uM after 24hrs by FACS analysis; type: functional
A2780 [2] = experiment: Induction of cell cycle arrest in human A2780 cells expressing p53 gene assessed as accumulation at subG1 phase at 10 uM after 24 hrs by FACS analysis; type: functional
[3] = Induction of cell cycle arrest in NHDF assessed as accumulation at subG1 phase at 5 uM after 24hrs by propidium-iodine staining based FACS analysis in presence of p53 specific siRNA; conditions: human
SF-268 [4] = experiment: Induction of cell cycle arrest in p53 deficient human SF268 cells assessed as residual DNA synthesis at 10 uM after 24 hrs by FACS analysis; type: functional
U2OS [5] = experiment: Induction of cell cycle arrest in human U2OS cells expressing p53 gene assessed as accumulation at subG1 phase at 10 uM after 24 hrs by FACS analysis; type: functional
[6] = biological target: Serine/threonine-protein kinase TAO3 (Homo sapiens, UniProt Q9H2K8); experiment: Inhibition of TAO3
Serine/threonine-protein kinase TAO3, sequence (Q9H2K8 whole entry): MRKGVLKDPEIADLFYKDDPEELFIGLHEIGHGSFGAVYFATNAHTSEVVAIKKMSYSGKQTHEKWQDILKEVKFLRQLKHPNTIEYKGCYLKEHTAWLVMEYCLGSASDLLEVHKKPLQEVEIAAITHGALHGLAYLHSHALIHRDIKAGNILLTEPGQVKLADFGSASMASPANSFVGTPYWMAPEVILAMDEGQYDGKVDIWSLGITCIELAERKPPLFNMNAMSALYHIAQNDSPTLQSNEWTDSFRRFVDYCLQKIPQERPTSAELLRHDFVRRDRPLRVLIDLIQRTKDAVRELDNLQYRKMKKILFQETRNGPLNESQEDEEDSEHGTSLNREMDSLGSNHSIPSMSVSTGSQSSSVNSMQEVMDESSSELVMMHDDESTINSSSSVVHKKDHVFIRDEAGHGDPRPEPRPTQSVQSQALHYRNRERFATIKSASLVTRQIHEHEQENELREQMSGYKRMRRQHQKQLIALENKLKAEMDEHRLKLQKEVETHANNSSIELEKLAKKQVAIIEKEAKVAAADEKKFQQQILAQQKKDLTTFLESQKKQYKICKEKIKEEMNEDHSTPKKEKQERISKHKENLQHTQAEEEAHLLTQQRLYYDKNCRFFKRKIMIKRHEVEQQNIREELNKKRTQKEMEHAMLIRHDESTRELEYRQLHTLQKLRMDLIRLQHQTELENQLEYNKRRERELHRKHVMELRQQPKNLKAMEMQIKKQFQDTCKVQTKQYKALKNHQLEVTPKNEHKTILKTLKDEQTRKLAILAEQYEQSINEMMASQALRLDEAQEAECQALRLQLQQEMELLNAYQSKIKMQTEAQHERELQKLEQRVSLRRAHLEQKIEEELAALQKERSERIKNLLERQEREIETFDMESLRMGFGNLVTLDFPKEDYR

[7] = Antiproliferative activity against human NCI60 cells
U2OS [8] = experiment: Induction of cell cycle arrest in human U2OS cells expressing p53 gene assessed as accumulation at subG1 phase at 5 uM after 24hrs by FACS analysis; type: functional
SW480 = experiment: Antiproliferative activity against p53 deficient human SW480 cells after 72 hrs by proliferative assay; type: functional, cell-based; conditions: SW480, 72 h
[9] = Antiproliferative activity against p53 deficient human A2780/E6 cells after 72 hrs by proliferative assay; type: functional, cell-based; conditions: A2780/E6, 72 h
SF-539 [10] = experiment: Induction of cell cycle arrest in human SF539 cells expressing p53 gene assessed as accumulation at subG1 phase at 10 uM after 24 hrs by FACS analysis; type: functional
A2780 [11] = experiment: Induction of cell cycle arrest in human A2780 cells expressing p53 gene assessed as residual DNA synthesis at 5 uM after 24 hrs by FACS analysis; type: functional
NHDF [12] = experiment: Prevention of nocodazole induced mitotic arrest in NHDF after 1 hr by FACS analysis; type: cell-based; conditions: human
K562 = experiment: Induction of cell cycle arrest in p53 deficient human K562 cells assessed as accumulation at subG1 phase at 5 uM after 24hrs by FACS analysis; type: functional
HCT-116 [13] = experiment: Induction of cell cycle arrest in human HCT116 cells expressing p53 gene assessed as accumulation at subG1 phase at 5 uM after 24hrs by FACS analysis; type: functional
[14] = Induction of cell cycle arrest in p53 deficient human HCT116-E6 cells assessed as residual DNA synthesis at 5 uM after 24 hrs by FACS analysis; type: functional
OVCAR-8 [15] = experiment: Antiproliferative activity against p53 deficient human OVCAR8 cells after 72 hrs by proliferative assay; type: functional, cell-based; conditions: OVCAR-8, 72 h
HeLa [16] = experiment: Inhibition of DNA replication in human HeLa cells assessed as interorigin distance between homogenous DNA fibers at 5 uM after 2 hrs by immunofluorescence assay; type: functional
HeLa [17] = experiment: Induction of cell cycle arrest in p53 deficient human HeLa cells assessed as assessed as accumulation at subG1 phase at 5 uM after 24hrs by FACS analysis; type: functional
PC-3 = experiment: Induction of cell cycle arrest in human PC3 cells expressing p53 gene assessed as accumulation at subG1 phase at 5 uM after 24hrs by FACS analysis; type: functional
HeLa [18] = experiment: Inhibition of DNA replication in human HeLa cells assessed as increase in replication fork speed per min at 20 uM after 4 hrs by immunofluorescence assay; type: functional
SF-539 [19] = experiment: Induction of cell cycle arrest in human SF539 cells expressing p53 gene assessed as residual DNA synthesis at 10 uM after 24 hrs by FACS analysis; type: functional
[20] = biological target: Tyrosine-protein kinase ZAP-70 (Homo sapiens, UniProt P43403); experiment: Inhibition of ZAP70
Tyrosine-protein kinase ZAP-70, sequence (P43403 whole entry): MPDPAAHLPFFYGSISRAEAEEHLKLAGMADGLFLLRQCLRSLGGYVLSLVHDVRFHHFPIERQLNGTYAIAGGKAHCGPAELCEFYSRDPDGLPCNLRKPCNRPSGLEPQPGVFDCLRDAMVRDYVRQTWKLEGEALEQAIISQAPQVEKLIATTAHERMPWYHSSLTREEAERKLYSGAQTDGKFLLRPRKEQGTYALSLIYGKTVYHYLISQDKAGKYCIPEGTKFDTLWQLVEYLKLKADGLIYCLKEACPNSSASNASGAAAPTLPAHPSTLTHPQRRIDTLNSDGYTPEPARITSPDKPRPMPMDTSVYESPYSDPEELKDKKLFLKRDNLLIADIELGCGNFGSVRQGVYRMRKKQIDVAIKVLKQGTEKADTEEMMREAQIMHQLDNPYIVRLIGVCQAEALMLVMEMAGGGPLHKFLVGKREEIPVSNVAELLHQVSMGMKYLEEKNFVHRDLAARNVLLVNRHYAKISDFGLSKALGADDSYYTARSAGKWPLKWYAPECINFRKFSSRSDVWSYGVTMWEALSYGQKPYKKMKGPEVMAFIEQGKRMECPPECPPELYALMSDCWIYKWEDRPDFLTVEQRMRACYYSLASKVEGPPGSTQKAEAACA

[21] = Clearance in rat carrying DMBA-induced mammary carcinoma at 10 mg/kg, iv after 10 hrs; type: ADME, organism-based; parameters: dose 10 mg/kg, route intravenous; conditions: in vivo
HCT-116 [22] = experiment: Induction of cell cycle arrest in human HCT116 cells expressing p53 gene assessed as residual DNA synthesis at 5 uM after 24 hrs by FACS analysis; type: functional
HCT-15 [23] = experiment: Induction of cell cycle arrest in human HCT15 cells expressing p53 gene assessed as residual DNA synthesis at 10 uM after 24 hrs by FACS analysis; type: functional
HCT-15 [24] = experiment: Antiproliferative activity against human HCT15 cells expressing p53 gene after 72 hrs by proliferative assay; type: functional, cell-based; conditions: HCT-15, 72 h
OVCAR-8 [25] = experiment: Induction of cell cycle arrest in p53 deficient human OVCAR8 cells assessed as residual DNA synthesis at 10 uM after 24 hrs by FACS analysis; type: functional
SF-539 [26] = experiment: Induction of cell cycle arrest in human SF539 cells expressing p53 gene assessed as residual DNA synthesis at 5 uM after 24 hrs by FACS analysis; type: functional
Mus musculus = experiment: AUC in SCID mouse carrying human HL60 cells at 30 mg/kg, iv after 10 hrs; type: ADME, organism-based, HL-60; parameters: time < 10 hr, dose 30 mg/kg, route intravenous; conditions: in vivo
NHDF [27] = experiment: Induction of cell cycle arrest in thymidine deficient NHDF assessed as DNA synthesis in S-phase at 5 uM after 16hrs FACS analysis in presence of serum; type: cell-based; conditions: human
SF-268 [28] = experiment: Induction of cell cycle arrest in p53 deficient human SF268 cells assessed as accumulation at subG1 phase at 10 uM after 24 hrs FACS analysis; type: functional
HeLa [29] = experiment: Inhibition of DNA synthesis in human HeLa cells assessed as Brd-U uptake at 5 uM by FACS analysis; type: functional; parameters: scale not given: the % may be the effect or the level left
NHDF [30] = experiment: Induction of cell cycle arrest in NHDF expressing p53 gene assessed as residual DNA synthesis at 10 uM after 24 hrs by FACS analysis; type: cell-based; conditions: human
HeLa [31] = experiment: Inhibition of DNA replication in human HeLa cells assessed as interorigin distance between homogenous DNA fibers at 20 uM after 4 hrs by immunofluorescence assay; type: functional
COLO 205 [32] = experiment: Induction of cell cycle arrest in p53 deficient human COLO205 cells assessed as residual DNA synthesis at 10 uM after 24 hrs by FACS analysis; type: functional
A2780 [33] = experiment: Induction of cell cycle arrest in human A2780 cells expressing p53 gene assessed as residual DNA synthesis at 10 uM after 24 hrs by FACS analysis; type: functional
[34] = Induction of cell cycle arrest in p53 deficient human A2780/E6 cells assessed as residual DNA synthesis at 10 uM after 24 hrs by FACS analysis; type: functional
[35] = Induction of cell cycle arrest in p53 deficient human HCT116-E6 cells assessed as accumulation at subG1 phase at 10 uM after 24hrs by FACS analysis; type: functional

What does the source list for O=C1NCCc2[nH]c(-c3ccncc3)cc21?
Activity (COLO 205 [1]): >20%; Activity (A2780 [2]): >20%; Activity [3]: 6.8%; Activity (SF-268 [4]): <3%; Activity (U2OS [5]): 3%; IC50 [6]: > 10000 nM; IC50 [7]: 3100 nM; Activity (U2OS [8]): 3%; IC50 (SW480): 2670 nM; IC50 [9]: 1500 nM; Activity (SF-539 [10]): 3%; Activity (A2780 [11]): <3%; Activity (NHDF [12]): Not Active; Activity (K562): <3%; Activity (HCT-116 [13]): 3%; Activity [14]: 3%; IC50 (OVCAR-8 [15]): 1560 nM; Activity (HeLa [16]): 210 kilobase; Activity (HeLa [17]): 10%; Activity (PC-3): 3%; Activity (HeLa [18]): 2.32 kilobase; Activity (SF-539 [19]): <3%; IC50 [20]: > 10000 nM; clearance [21]: 30 mL/min/kg; Activity (HCT-116 [22]): 3%; Activity (HCT-15 [23]): <3%; IC50 (HCT-15 [24]): 3810 nM; Activity (OVCAR-8 [25]): <3%; Activity (SF-539 [26]): 3%; AUC (Mus musculus): 71 µM·h; Activity (NHDF [27]): Active; Activity (SF-268 [28]): 3%; Activity (HeLa [29]): 37%; Activity (NHDF [30]): < 3%; Activity (HeLa [31]): 287 kilobase; Activity (COLO 205 [32]): 3%; Activity (A2780 [33]): <3%; Activity [34]: <3%; Activity [35]: 3%

Source: ChEMBL document CHEMBL1221210, “A Cdc7 kinase inhibitor restricts initiation of DNA replication and has antitumor activity” (Nat Chem Biol, 2008)
